According to patent US4110460A, “2,3-Dihydro-imidazo[2,1-b]-thiazole derivatives and applications thereof” (Metabio, priority 1976, dated 1978):

What was measured:
[1] = test system: carrageenin-induced edema of the rear limb of rats; assay: carrageenin-induced edema of the rear limb of rats (anti-inflammatory activity); format: in vivo, rat; design: Anti-inflammatory activity (carrageenin-induced edema): key to the marks not given beside the values; conditions: for Anti-inflammatory activity (carrageenin-induced edema): oral, rats, after 1.5 hour, rated + to ++++; for ED30 / ED40: carrageenin-induced edema in rat; for ED30: read-out: AD30; for ED40: read-out: AD40
Source text: The anti-inflammatory action of the various compounds is rated, according to its intensity, with 1 + to 4 +'s in the following Table.
1. Carrageenin-induced edema in rat

[2] = test system: writhing induced by intraperitoneal acetic acid in mice; assay: acetic acid writhing test in mice (analgesic activity); format: in vivo, mouse; design: key to Analgesic activity (writhing test): rated, according to its intensity, with from 1 + to 4 +'s, with from 1 + to 4 +'s; ++++: rated, according to its intensity, with from 1 + to 4 +'s; conditions: for Analgesic activity (writhing test): oral, mice, 0.5 hour prior to i.p. acetic acid, 15 minutes recording, rated + to ++++
Protocol: The analgesic activity was determined according to the conventional testing methods for said activity: the writhing test. Mice are given a single intraperitoneal injection of 0.2 ml 6°/129 acetic acid.
The test compound is administered orally 0.5 hour prior to the acetic acid injection. The number of characteristic writhing movements inducted by pain is recorded during the 15 minutes which follow the acetic acid injection.
The analgesic action of the various derivatives is rated, according to its intensity, with from 1 + to 4 +'s in the following table.

[3] = acute oral toxicity in male mice; format: in vivo; conditions: mouse, in vivo, po, male mice; read-out: LD50 per os
Protocol: (§1) Acute toxicity was determined orally in male mice.

male mice = assay: acute oral toxicity in male mice; format: in vivo
Protocol: as §1

[4] = test system: cotton-induced granuloma in rat; assay: cotton-induced granuloma in rat; format: in vivo; conditions: male rats, oral during 7 days
Protocol: The test is conducted according to the technique of […]. Am. Chem. Soc., 80, 3161, 1958) The male rats are distributed in randomized groups, slightly anesthetized and depilated in the dorsal area. An incision of about 1 cm is effected along the spine, and 2 pellets of carded cotton weighing each 20 mg are placed under the skin on both sides of the neck. The treatments are administered orally during 7 days, as suspensions in BT medium. The reference group is administered BT medium alone, under the same experimental conditions. 24 hours after the last ingestion, the pellets are excised and weighed.

[5] = test system: ultra-violet induced erythema in guinea-pigs; assay: ultra-violet induced erythema in guinea-pigs; format: in vivo, guinea-pig; conditions: intragastric
Protocol: Erythema is induced in depilated guinea-pigs placed at a distance of 25 cm from a 300 watt mercury vapor lamp.
The back of the guinea-pigs is covered with a coat of flexible rubber in which 3 circular perforations 8 mm in diameter are effected. Blind evaluation of the erythema is carried out, 2 hrs and 5 hrs after irradiation.
The treatment is administered by the intragastric route, under a volume of 5 ml/kg.

[6] = test system: Freund-adjuvant induced arthritis in rats; assay: Freund-adjuvant induced arthritis in rats; format: in vivo; conditions: Rattus norvegicus, limb volume, X-ray examination, weight curve, lowest active dosage, read-out: inhibiting activity on the development of adjuvant-induced polyarthritis, apparent from a dosage of
Protocol: Injection of Mycobacterium butyricum is carried out at the level of the hind limb of rats, and produces as early as the 10th day an arthritis which develops rapidly.
The inhibiting activity of the compound of Example 1 on the development of adjuvant-induced polyarthritis in rats is apparent from a dosage of 5 mg/kg.

[7] = test system: hyperthermia induced in rats by subcutaneous injection of barm; assay: antipyretic activity, barm (yeast)-induced hyperthermia in rats; format: in vivo, rat; conditions: po, intragastric, 17 hours after yeast injection, lowest active dosage, read-out: active from a dosage of (antipyretic activity)
Protocol: Hyperthermia is induced in rats by subcutaneous injection of barm, at a dosage of 4 g/kg.
The treatments are administered by the intragastric route, 17 hours after yeast injection.
The change in rectal temperature of the rats is compared, as a function of time, in the absolute reference animals, the "barm" reference animals and the treated animals.

rats = assay: chronic toxicity tests in rats; format: in vivo, rat; conditions: 40 mg/kg/day
fasting rats = assay: ulcerogenic activity in fasting rats; format: in vivo, rat

SMILES	Anti-inflammatory activity (carrageenin-induced edema) [1]	Analgesic activity (writhing test) [2]	LD50 [3]	ED30 ([1]; po, 1.5 h)	ED40 ([1]; po, 1.5 h)	also measured
COc1ccc(-c2nc3n(c2-c2ccc(OC)cc2)CC(C)S3)cc1 (centres unmarked) [Example 3, 2-methyl-2,3-dihydro-5,6-(bis-paramethoxyphenyl)-imidazo[2,1-b]-thiazole]	+++	+++	> 2000 mg/kg			
CCCCC1C(=O)N(c2ccccc2)N(c2ccccc2)C1=O [Phenylbutazone, reference compound]				16.1 mg/kg	27.4 mg/kg	
COc1ccc(-c2nc3n(c2-c2ccc(OC)cc2)C(C)C(C)S3)cc1 (centres unmarked) [Example 7, 2,3-dimethyl-2,3-dihydro-5,6-bis(p-methoxyphenyl)-imidazo[2,1-b]-thiazole]	+++	++++				
COc1ccc(-c2nc3n(c2-c2ccc(OC)cc2)CCS3)cc1 [Example 22]						LD50 per os (male mice; oral, male mice): > 2,000 mg/kg
COc1ccc(-c2nc3n(c2-c2ccc(OC)cc2)C(C)CS3)cc1 (centres unmarked) [Example 4, 3-methyl-2,3-dihydro-5,6-(bis-paramethoxyphenyl)-imidazo[2,1-b]-thiazole]		+++	> 2000 mg/kg			
COc1ccc(-c2nc3n(c2-c2ccc(OC)cc2)CCS3)cc1 [Example 1, 2,3-dihydro-5,6-(bis-paramethoxyphenyl)-imidazo[2,1-b]-thiazole]	++++	++++		5.22 mg/kg	7.78 mg/kg	minimal effective dose ([1]; po, 1.5 h, rat, lowest active dosage, read-out: active from a dosage of (carrageenin-induced edema)): 3.38 mg/kg; analgesic activity on visceral pain ([2]; acetic acid writhing test in mice, in words): highly marked analgesic activity on visceral pain; LD50 per os (male mice; mouse, in vivo, po): > 4,200 mg/kg; activity relative to phenylbutazone (granuloma) [4]: twice as active as phenylbutazone; inhibition of the development of a granuloma [4]: inhibits the development of a granuloma; protective activity, dependence on dosage (erythema) [5]: proportional to the dosage administered; protective activity still maintained ... hours after administration ([5]; duration): ≥ 6 h; protective activity highly marked as early as the first ... hours ([5]; onset): ≤ 3 h; minimal effective dose [6]: 5 mg/kg; minimal effective dose [7]: 3.38 mg/kg; major side-effects (chronic toxicity) (rats): failed to provide evidence of any major side-effects; ulcerogenic activity (fasting rats): low ulcerogenic activity found in fasting rats is equivalent to that of the reference materials
